In general, Km refers to the concentration of substrate that gives half-maximal velocity.

Four compounds from paper PMC2674329 (The Journal of steroid biochemistry and molecular biology, 2008) can be followed below.

What all share (type): biochemical
Test [1] deals with T1, human placental cytosolic COMT (Homo sapiens, UniProt P21964).
T1 sequence (P21964 1-221 isoform P21964-2): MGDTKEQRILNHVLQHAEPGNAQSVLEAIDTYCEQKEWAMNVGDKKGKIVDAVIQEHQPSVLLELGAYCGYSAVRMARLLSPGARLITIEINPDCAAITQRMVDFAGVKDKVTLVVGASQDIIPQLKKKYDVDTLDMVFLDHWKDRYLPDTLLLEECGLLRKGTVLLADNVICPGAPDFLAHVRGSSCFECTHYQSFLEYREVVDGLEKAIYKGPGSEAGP
Conditions: for Km: read-out: KM of the substrate for O-methylation.

Test [2] addresses T2, human liver cytosolic COMT (Homo sapiens, UniProt P21964).
T2 sequence (P21964 1-221 isoform P21964-2): T1 sequence (P21964 1-221 isoform P21964-2)

Test [3] has as its target T3, human liver and placental cytosolic COMT (Homo sapiens, UniProt P21964).
T3 sequence (P21964 1-221 isoform P21964-2): T1 sequence (P21964 1-221 isoform P21964-2)

Setting [4] is: range over liver and placental samples (summary).

Where two headings read alike, the source gives them in different places.

Regarding `O=C(O)/C=C/c1ccc(O)c(O)c1` [Caffeic acid, caffeic acid], the “VMAX, 4-OH-E2 as substrate, in presence of inhibitor” value in test [1] (HP17C + 2 μM inhibitor, no inhibitor: 1827) was 531 pmol/mg protein/min; in test [1] (HP17C + 0.5 inhibitor (unit of concentration not given), no inhibitor: 1827) it was 1572 pmol/mg protein/min. Moreover, the “VMAX, 2-OH-E2 as substrate, in presence of inhibitor” value in test [1] (HP17C + 0.5 inhibitor (unit of concentration not given), no inhibitor: 2274) was found to be 2078 pmol/mg protein/min.

As for `C[C@]12CC[C@@H]3c4cc(O)c(O)cc4CC[C@H]3[C@@H]1CC[C@@H]2O` [2-OH-E2, 2-hydroxyestradiol, reference compound], the results for the “VMAX of the substrate for O-methylation” value in test [1] (HP17C (no inhibitor)), in test [1] (HP18C (no inhibitor)) and in test [1] (HP20C (no inhibitor)) were 2274 pmol/mg protein/min, 4815 pmol/mg protein/min and 1650 pmol/mg protein/min, respectively. Moreover, the Km was 1.3 µM in test [1] (HP17C (no inhibitor)), 1 µM in test [1] (HP18C (no inhibitor)) and 0.7 µM in test [1] (HP20C (no inhibitor)).

For the compound `C[C@]12CC[C@@H]3c4ccc(O)c(O)c4CC[C@H]3[C@@H]1CC[C@@H]2O` [4-OH-E2, 4-hydroxyestradiol, reference compound], the “VMAX of the substrate for O-methylation” value in test [2] (HL1C (no inhibitor), experiment with 1 μM chlorogenic acid) came out at 6408 pmol/mg protein/min; in test [2] (HL1C (no inhibitor), experiment with 2 μM caffeic acid), 6401 pmol/mg protein/min; in test [2] (HL6C (no inhibitor)), 6310 pmol/mg protein/min; in test [1] (HP17C (no inhibitor)), 1827 pmol/mg protein/min; in test [1] (HP18C (no inhibitor)), 1918 pmol/mg protein/min; in test [1] (HP20C (no inhibitor)) it was 759 pmol/mg protein/min. In addition, the Michaelis-Menten constant (Km) worked out at 7.1 µM in test [2] (read-out: KM of the substrate for O-methylation, HL6C (no inhibitor)); 3.2 µM in test [1] (HP17C (no inhibitor)); 4.2 µM in test [1] (HP18C (no inhibitor)); 3.5 µM in test [1] (HP20C (no inhibitor)).

For the compound `O=C(/C=C/c1ccc(O)c(O)c1)O[C@@H]1C[C@](O)(C(=O)O)C[C@@H](O)[C@H]1O` [Chlorogenic acid, chlorogenic acid], the “VMAX, 4-OH-E2 as substrate, in presence of inhibitor” value in test [2] (HL1C + 1 μM inhibitor, no inhibitor: 6408) turned out to be 2825 pmol/mg protein/min; in test [2] (HL6C + 2 μM inhibitor, no inhibitor: 6310), 3292 pmol/mg protein/min; in test [1] (HP18C + 0.25 μM inhibitor, no inhibitor: 1918), 1480 pmol/mg protein/min; in test [1] (HP18C + 0.5 μM inhibitor, no inhibitor: 1918), 1146 pmol/mg protein/min; in test [1] (HP20C + 0.5 μM inhibitor, no inhibitor: 759), 312 pmol/mg protein/min. Moreover, the “change of apparent KM value, O-methylation of 4-OH-E2” value in test [2] (inhibitor at 1 μM) is given as “slightly increased”. Besides, the “decrease of apparent VMAX value, O-methylation of 4-OH-E2” value in test [2] (inhibitor at 1 μM) is listed as “approximately 50%”. The “mechanism of enzyme inhibition, O-methylation of 4-OH-E2” value in test [2] (inhibitor at 1 μM) is given as “primarily a noncompetitive mechanism”. In addition, the “VMAX, 2-OH-E2 as substrate, in presence of inhibitor” value stood at 3960 pmol/mg protein/min in test [1] (HP18C + 0.25 μM inhibitor, no inhibitor: 4815); 3648 pmol/mg protein/min in test [1] (HP18C + 0.5 μM inhibitor, no inhibitor: 4815); 1311 pmol/mg protein/min in test [1] (HP20C + 0.5 μM inhibitor, no inhibitor: 1650). Also, the “increase of KM value, 2-OH-E2 as a substrate” value in test [1] (inhibitor at 0.25 μM) is “approximately 2 fold”; in test [1] (inhibitor at 0.5 μM) it was approximately 4 fold. Besides, the “increase of KM value, 4-OH-E2 as a substrate” value is recorded as “approximately 1.2 fold” in test [1] (inhibitor at 0.25 μM) and “approximately 2 fold” in test [1] (inhibitor at 0.5 μM). Moreover, the “decrease of VMAX value, 2-OH-E2 as a substrate” value in test [1] (inhibitor at 0.25 and 0.5 μM) is recorded as “approximately 20%”. For the same compound, the “decrease of VMAX value, 4-OH-E2 as a substrate” value in test [1] (inhibitor at 0.25 and 0.5 μM) is on record as “approximately 50%”. In addition, in test [1] (section on human placental cytosolic COMT (sentence prints human liver COMT)), the “mechanism of enzyme inhibition, O-methylation of 2-OH-E2 and 4-OH-E2” value is given as “mixed (competitive plus noncompetitive)”. The “mechanism of inhibition, O-methylation of 2-OH-E2 and 4-OH-E2” value in test [3] (human liver and placental COMT) is on record as “mixed (competitive plus noncompetitive)”. In addition, in test [3] (human liver or placental cytosolic COMT), the “higher inhibition potency for the O-methylation of 4-OH-E2 than for the O-methylation of 2-OH-E2” value is on record as 1.5 to 7 fold. For the same compound, the “IC50 values for inhibiting the methylation of 2-OH-E2” value in test [3] (setting [4]) fell in the range of 800 to 1400 nM. Moreover, the “IC50 values for inhibiting the methylation of 4-OH-E2” value in test [3] (setting [4]) fell in the range of 200 to 800 nM.
